Laboratory results taken from PMC5374206, “Anti-bacterial and Anti-biofilm Evaluation of Thiazolopyrimidinone Derivatives Targeting the Histidine Kinase YycG Protein of Staphylococcus epidermidis” (Frontiers in Microbiology, 2017).
Converted amounts (≈) assume the structure as drawn. “Also recorded” adds a separate entry of the source. Where two headings read alike, the source gives them in different places.

Columns and labels:
[1] = system: S. epidermidis ATCC 35984; assay: MIC and MBC tube-dilution assay; format: cell-based; settings: Staphylococcus epidermidis; for MBC: ATCC35984, 99.9% reduction of inoculum; for MIC: ATCC35984, MHB, 16–20 h
Method: (§1) The MIC assays of the derivatives of compound 5 against S. epidermidis, S. aureus, MRSA and E. coli were performed by using the methods described previously by Wiegand et al. ([2008]). In brief, two-fold serial dilutions of the derivatives were prepared in tubes containing 4 mL MHB medium, yielding final concentrations from 200 to 0.78 μM. Bacterial cultures were grown overnight and adjusted so that the bacterial suspension turbidity was equivalent to a 0.5 McFarland standard (~1 × 10^8 CFU/mL) and further diluted to 1:200 into MHB medium. The contents in the tubes were mixed thoroughly and incubated at 37°C with shaking at 220 rpm for 16–20 h. The MIC endpoint was defined as the lowest concentration at which there was no visible growth in the tubes. The MBC values were assessed by plating 100 μL samples from each negative (no visible bacterial growth) culture tube from the MIC assays onto blank MHB agar plates. After incubation at 37°C for 24 h, the bacterial colonies on the plates were counted. The MBC was the concentration at which a 99.9% reduction of the original inoculum was observed (Pridmore et al., [2011]). In this assay, all the experiments were performed three times.

[2] = system: E. coli ATCC 25922; assay: MIC tube-dilution assay; format: cell-based, Escherichia coli; settings: E. coli ATCC29522 (head), highest concentration used 200 μM
Method: as §1

[3] = system: S. aureus ATCC 49230; assay: MIC tube-dilution assay; format: cell-based; settings: Staphylococcus aureus, ATCC49230
Method: as §1

[4] = system: S. epidermidis ATCC 12228; assay: MIC tube-dilution assay; format: cell-based; settings: Staphylococcus epidermidis, ATCC12228
Method: as §1

[5] = system: S. epidermidis ATCC 35984; assay: Time-kill assay against fast-growing S. epidermidis; format: cell-based, Staphylococcus epidermidis; settings: 4 × MIC; within/after 1 h; inoculum ~1 × 10^7 CFU/mL; MHB
Method: Suspensions of S. epidermidis (1 × 10^7 CFU/mL) were prepared and separately treated with the derivatives of compound 5 or vancomycin at concentrations of 4 × MIC in fresh MHB. Time-kill experiments were performed at 37°C with shaking at 220 rpm under aerobic conditions. Aliquots (1 mL) were removed from the culture medium at different time points (0, 1, 3, 5, 8, and 24 h), serially diluted and 100 μL of each of the dilutions plated out onto tryptic soy agar. After incubating at 37°C for 24 h, emergent bacterial colonies were counted, and the activity of the derivatives against fast-growing S. epidermidis cells was determined by plotting log10 colony counts (CFU/mL) against time. Bactericidal activity was defined as a 3-log10 decrease in CFU/mL. This assay was performed in triplicate and similar results were obtained.

[6] = system: S. epidermidis ATCC 35984 biofilm formation; assay: Flow-based biofilm inhibition assay (BioFlux); format: cell-based, Staphylococcus epidermidis; settings: 2 × MIC; shear 0.15 dyn/cm^2; 16 h; result in words
Method: The microfluidic channels of BioFlux 48-well plates (Fluxion Biosciences, South San Francisco, CA, USA) were primed with pre-warmed (37°C) TSB medium from the outlet well at a shear setting of 2 dyn/cm^2 for 10 min. Overnight bacterial culture of S. epidermidis ATCC 35984 was subcultured to mid-log phase and then diluted 1:200 in MHB medium, bacteria were seeded from the outlet well into the channel and viewing window at a shear setting of 2 dyn/cm^2 for 3 s. […] Growth of the biofilms was monitored for up to 16 h. Images of different stages were automatically acquired at 10 min intervals with bright-field illumination.

[7] = system: MRSA strain 226 young biofilms; assay: Microtiter plate assay of 6 h young biofilms of MRSA; format: cell-based, S. aureus
Method: The biofilm-killing effect for immature (6 h old) biofilms was determined in TSB using a semi-quantitative assay. An overnight culture was diluted 1:200 into TSB medium with 0.25% glucose, and incubated in polystyrene 96-well plates at 37°C for 6 h. Biofilms were exposed to two-fold serial dilutions of the derivatives, and the plates were incubated for another 18 h at 37°C. Following the incubation and removal of non-adherent cells with 200 μl of phosphate-buffered saline, adherent biofilms were fixed with 95% methanol and stained with 2% (w/v) crystal violet. Then, the wells were washed three times with sterile distilled water and the plates were air dried for 2 h. The optical density of each well at 570 nm was determined using a 96-well plate spectrophotometer (DTX880, Beckman Coulter, USA).

[8] = system: methicillin-resistant S. aureus (MRSA) clinical isolates; assay: MIC and MBC against clinical MRSA isolates; format: cell-based; settings: Staphylococcus aureus
Method: S. epidermidis ATCC 12228 (biofilm negative), S. epidermidis ATCC 35984 (biofilm positive), S. aureus ATCC 49230 and Escherichia coli ATCC 25922 were used in this study. Six clinical methicillin-resistant S. aureus (MRSA) isolates were collected from the Department of Clinical Laboratory, Shanghai General Hospital, School of Medicine, Shanghai Jiaotong University, China. Staphylococcal strains were grown in tryptic soy broth (TSB; Oxoid Ltd., Basingstoke, England), and E. coli strains were grown in Luria-Bertani broth medium. Mueller-Hinton broth (MHB; Oxoid Ltd., Basingstoke, England) was used for antimicrobial susceptibility testing. Vancomycin and ampicillin were obtained from the Sigma Chemical Co. (St Louis, MO, USA).
as §1

[9] = Cytotoxicity MTT assay; format: cell-based; settings: African green monkey, Vero cells, highest concentration tested 200 μM
Method: A Cell Proliferation Kit I (MTT; Roche, Indianapolis, USA) was used to detect the cytotoxicity of the derivatives against Vero cells. Vero cells were added to 96-well microtiter plates at a concentration of 5 × 10^4 cells/well in 100 μL of culture medium. After 24 h, culture medium was replaced by 100 μL serial dilutions of the derivatives (0.78–100 μM) and the cells were incubated for 4 h in an atmosphere of 5% CO2, then 10 μL of the MTT stock solution was added to each well and the plate returned to the 37°C incubator for 4 h. Subsequent to the incubation, the purple formazan salts were dissolved in DMSO, and the absorbance of each well was measured at wavelengths of 595 nm (test) and 655 nm (reference). Cells treated with the solvent (0.1% DMSO) were used as a blank control. The concentration of the derivatives that produced a 50% cytotoxicity effect on Vero cells (CC50) was calculated using Origin v8.0 software (Origin Lab, Northampton, USA).

[10] = Escherichia coli, ATCC 25922 / ATCC 29522
[11] = MRSA strain 66, ST239, read-out: MIC
[12] = MRSA strain 69, ST217, read-out: MIC
[13] = MRSA strain 141, ST5, read-out: MIC
[14] = MRSA strain 226, ST59, read-out: MIC
[15] = MRSA strain 258, ST239, read-out: MIC
[16] = MRSA strain 260, ST764, read-out: MIC
[17] = range over six isolates, read-out: MICs against six MRSA clinical isolates

SMILES	MBC [1] [µM]	MIC [1] [µM]	MIC [2] [µM]	MIC [2, 10] [µM]	MIC [3] [µM]	MIC [4] [µM]	reduction in CFU/mL [5] [log]	biofilm formation under shearing forces [6]	minimal biofilm-killing concentration [7] [µM]	MBC ([8]; MRSA strain 66, ST239) [µM]	MIC [8, 11] [µM]	MBC ([8]; MRSA strain 69, ST217) [µM]	MIC [8, 12] [µM]	MBC ([8]; MRSA strain 141, ST5) [µM]	MIC [8, 13] [µM]	MBC ([8]; MRSA strain 226, ST59) [µM]	MIC [8, 14] [µM]	MBC ([8]; MRSA strain 258, ST239) [µM]	MIC [8, 15] [µM]	MBC ([8]; MRSA strain 260, ST764) [µM]	other results
CCOC(=O)C1=C(c2ccccc2)N=c2sc(=Cc3ccc(-c4ccc(C(=O)O)cc4)o3)c(=O)n2C1c1ccc(Cl)cc1 (centres unmarked) [H5-34, 2-[5-(4-carboxy-phenyl)-furan-2-ylmethylene]-5-(4-chloro-phenyl)-3-oxo-7-phenyl-2,3-dihydro-5H-thiazolo[3,2-a]pyrimidine-6-carboxylic acid ethyl ester]	25 (≈ 15.3 µg/mL)	3.13 (≈ 1.91 µg/mL)	>200	> 200	3.13 (≈ 1.91 µg/mL)	3.13 (≈ 1.91 µg/mL)	3	significant decrease in the biofilm formation; also recorded: strongly inhibited biofilm formation	200	200 (≈ 122 µg/mL)	3.13 (≈ 1.91 µg/mL)	50 (≈ 30.6 µg/mL)	6.25 (≈ 3.82 µg/mL)	200 (≈ 122 µg/mL)	6.25 (≈ 3.82 µg/mL)	100 (≈ 61.1 µg/mL)	6.25 (≈ 3.82 µg/mL)	200 (≈ 122 µg/mL)	6.25 (≈ 3.82 µg/mL)	200 (≈ 122 µg/mL)	MIC [8, 16]: 6.25 µM (≈ 3.82 µg/mL); MIC [8, 17]: 3.13 to 6.25 µM (≈ 1.91 to 3.82 µg/mL); CC50 at 4 h [9]: > 200 µM
CCOC(=O)C1=C(c2ccccc2)N=c2sc(=Cc3ccc(-c4cccc(C(=O)O)c4)o3)c(=O)n2C1c1ccc(F)cc1 (centres unmarked) [H5-32, 2-[5-(3-carboxy-phenyl)-furan-2-ylmethylene]-5-(4-fluoro-phenyl)-3-oxo-7-phenyl-2,3-dihydro-5H-thiazolo[3,2-a]pyrimidine-6-carboxylic acid ethyl ester]	100 (≈ 59.5 µg/mL)	3.13 (≈ 1.86 µg/mL)	>200	> 200	3.13 (≈ 1.86 µg/mL)	6.25 (≈ 3.72 µg/mL)	3	significant decrease in the biofilm formation; also recorded: strongly inhibited biofilm formation	200	100 (≈ 59.5 µg/mL)	3.13 (≈ 1.86 µg/mL)	50 (≈ 29.7 µg/mL)	3.13 (≈ 1.86 µg/mL)	100 (≈ 59.5 µg/mL)	6.25 (≈ 3.72 µg/mL)	50 (≈ 29.7 µg/mL)	6.25 (≈ 3.72 µg/mL)	200 (≈ 119 µg/mL)	3.13 (≈ 1.86 µg/mL)	100 (≈ 59.5 µg/mL)	MIC [8, 16]: 6.25 µM (≈ 3.72 µg/mL); MIC [8, 17]: 3.13 to 6.25 µM (≈ 1.86 to 3.72 µg/mL); CC50 at 4 h [9]: > 200 µM
CCOC(=O)C1=C(c2ccccc2)N=c2sc(=Cc3ccc(-c4ccc(C(=O)O)cc4)o3)c(=O)n2C1c1ccc(F)cc1 (centres unmarked) [H5-35, 2-[5-(4-carboxy-phenyl)-furan-2-ylmethylene]-5-(4-fluoro-phenyl)-3-oxo-7-phenyl-2,3-dihydro-5H-thiazolo[3,2-a]pyrimidine-6-carboxylic acid ethyl ester]	12.5 (≈ 7.43 µg/mL)	3.13 (≈ 1.86 µg/mL)	>200	> 200	6.25 (≈ 3.72 µg/mL)	3.13 (≈ 1.86 µg/mL)	3	significant decrease in the biofilm formation; also recorded: strongly inhibited biofilm formation	200	200 (≈ 119 µg/mL)	3.13 (≈ 1.86 µg/mL)	50 (≈ 29.7 µg/mL)	6.25 (≈ 3.72 µg/mL)	200 (≈ 119 µg/mL)	6.25 (≈ 3.72 µg/mL)	100 (≈ 59.5 µg/mL)	6.25 (≈ 3.72 µg/mL)	200 (≈ 119 µg/mL)	6.25 (≈ 3.72 µg/mL)	200 (≈ 119 µg/mL)	MIC [8, 16]: 6.25 µM (≈ 3.72 µg/mL); MIC [8, 17]: 3.13 to 6.25 µM (≈ 1.86 to 3.72 µg/mL); CC50 at 4 h [9]: > 200 µM
O=C(O)c1cccc(-c2ccc(C=c3sc4n(c3=O)C(c3ccc(F)cc3)C=C(c3ccccc3)N=4)o2)c1 (centres unmarked) [H5-33, 3-{5-[5-(4-fluoro-phenyl)-3-oxo-7-phenyl-5H-thiazolo [3,2-a]pyrimidin-2-ylidenemethyl]-furan-2-yl}-benzoic acid]	12.5 (≈ 6.53 µg/mL)	3.13 (≈ 1.64 µg/mL)	>200	> 200	3.13 (≈ 1.64 µg/mL)	3.13 (≈ 1.64 µg/mL)	3	significant decrease in the biofilm formation; also recorded: strongly inhibited biofilm formation	200	200 (≈ 105 µg/mL)	6.25 (≈ 3.27 µg/mL)	50 (≈ 26.1 µg/mL)	6.25 (≈ 3.27 µg/mL)	200 (≈ 105 µg/mL)	6.25 (≈ 3.27 µg/mL)	200 (≈ 105 µg/mL)	6.25 (≈ 3.27 µg/mL)	200 (≈ 105 µg/mL)	6.25 (≈ 3.27 µg/mL)	200 (≈ 105 µg/mL)	MIC [8, 16]: 6.25 µM (≈ 3.27 µg/mL); MIC [8, 17]: 3.13 to 6.25 µM (≈ 1.64 to 3.27 µg/mL); CC50 at 4 h [9]: > 200 µM
